This assay has as its target T1, human mAChR M4 (Homo sapiens, UniProt P08173).
T1 construct: expressed in transfected cells
T1 sequence (P08173 1-479): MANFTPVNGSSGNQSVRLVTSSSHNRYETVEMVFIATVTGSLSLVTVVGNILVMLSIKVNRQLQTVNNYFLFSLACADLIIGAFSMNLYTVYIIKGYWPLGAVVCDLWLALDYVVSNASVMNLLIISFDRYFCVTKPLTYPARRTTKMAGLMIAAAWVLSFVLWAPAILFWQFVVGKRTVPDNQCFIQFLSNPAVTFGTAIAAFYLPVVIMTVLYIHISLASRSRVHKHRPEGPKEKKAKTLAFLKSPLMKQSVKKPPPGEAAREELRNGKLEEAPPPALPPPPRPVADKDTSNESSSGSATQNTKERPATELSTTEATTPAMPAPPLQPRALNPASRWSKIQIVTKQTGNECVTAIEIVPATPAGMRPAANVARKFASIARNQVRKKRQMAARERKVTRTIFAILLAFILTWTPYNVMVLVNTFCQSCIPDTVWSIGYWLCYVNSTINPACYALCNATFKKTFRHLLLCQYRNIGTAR
The assay can be described thus: mAChR M4 cell-based functional assay (calcium mobilization, CHO-K1 hM4-Gqi5 cells). The following applies: for Emax at 30 µM: CHO-K1, % ACh maximum at 30 μM, human M4; for EC50: positive allosteric modulator activity, increase in the EC20 acetylcholine response, CHO-K1 hM4-Gqi5 cells, read-out: Human M4 EC50. Summed up: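 Fluorescent calcium read-out (Fluo-4 AM, FDSS, 1 Hz) in hM4-Gqi5 CHO-K1 cells, 11-point 1:3 compound series. Agonism scored on compound addition, PAM activity as increase of the 144 s EC20 acetylcholine response, antagonism as decrease of the 230 s EC80 response; four-parameter logistic fits give EC50 and Emax.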

As for `COC1(C)CN(C(=O)c2cc(C)c(N3CCc4ncc(N5CCCn6nccc65)cc4C3)nn2)C1` [Example 552, (6-(3-(6,7-dihydropyrazolo[1,5-a]pyrimidin-4(5H)-yl)-7,8-dihydro-1,6-naphthyridin-6(5H)-yl)-5-methylpyridazin-3-yl)(3-methoxy-3-methylazetidin-1-yl)methanone], the Emax at 30 µM was 76% and the EC50 is 22 nM.
Regarding `Cc1cc(C(=O)NC2(c3cccnc3)CC2)nnc1N1CCc2ncc(N3CCCn4nccc43)cc2C1` [Example 553, 6-(3-(6,7-dihydropyrazolo[1,5-a]pyrimidin-4(5H)-yl)-7,8-dihydro-1,6-naphthyridin-6(5H)-yl)-5-methyl-N-(1-(pyridin-3-yl)cyclopropyl)pyridazine-3-carboxamide], the Emax at 30 µM stood at 80% and the EC50 is 21 nM.
With `Cc1cc(C(=O)N2CC(CO)C2)nnc1N1CCc2ncc(N3CCCn4nccc43)cc2C1` [Example 554, (6-(3-(6,7-dihydropyrazolo[1,5-a]pyrimidin-4(5H)-yl)-7,8-dihydro-1,6-naphthyridin-6(5H)-yl)-5-methylpyridazin-3-yl)(3-(hydroxymethyl)azetidin-1-yl)methanone], the Emax at 30 µM came to 78% and the EC50 was found to be 16 nM.
Regarding `Cc1cc(C(=O)N2CC3(C2)CC(F)(F)C3)nnc1N1CCc2ncc(N3CCCn4nccc43)cc2C1` [Example 555, (6,6-difluoro-2-azaspiro[3.3]heptan-2-yl)(6-(3-(6,7-dihydropyrazolo[1,5-a]pyrimidin-4(5H)-yl)-7,8-dihydro-1,6-naphthyridin-6(5H)-yl)-5-methylpyridazin-3-yl)methanone], the Emax at 30 µM is 83% and the EC50 amounted to 48 nM.
In the case of `Cc1cc(C(=O)N(C)C)nnc1N1CCc2ncc(N3CCCn4nccc43)cc2C1` [Example 556, 6-(3-(6,7-dihydropyrazolo[1,5-a]pyrimidin-4(5H)-yl)-7,8-dihydro-1,6-naphthyridin-6(5H)-yl)-N,N,5-trimethylpyridazine-3-carboxamide], the Emax at 30 µM was 87% and the EC50 came to 1460 nM.
`Cc1cc(C(=O)N2CCC2c2ccccc2)nnc1N1CCc2ncc(N3CCCn4nccc43)cc2C1` (stereo not shown) [Example 557, (6-(3-(6,7-dihydropyrazolo[1,5-a]pyrimidin-4(5H)-yl)-7,8-dihydro-1,6-naphthyridin-6(5H)-yl)-5-methylpyridazin-3-yl)(2-phenylazetidin-1-yl)methanone]: the Emax at 30 µM turned out to be 91% and the 50% effective concentration (EC50) stood at 166 nM.
For `Cc1cc(C(=O)N2CC(C(F)F)C2)nnc1N1CCc2ncc(Nc3ccnn3C)cc2C1` [Example 558, (3-(difluoromethyl)azetidin-1-yl)(5-methyl-6-(3-((1-methyl-1H-pyrazol-5-yl)amino)-7,8-dihydro-1,6-naphthyridin-6(5H)-yl)pyridazin-3-yl)methanone], the maximal response (Emax) at 30 µM was determined as 90% and the EC50 was 101 nM.
For `Cc1cc(C(=O)N2CC(F)C2)nnc1N1CCc2ncc(Nc3ccnn3C)cc2C1` [Example 559, (3-fluoroazetidin-1-yl)(5-methyl-6-(3-((1-methyl-1H-pyrazol-5-yl)amino)-7,8-dihydro-1,6-naphthyridin-6(5H)-yl)pyridazin-3-yl)methanone], the Emax at 30 µM came out at 73% and the EC50 was determined as 64 nM.
On the same counts, the results for `Cc1cc(C(=O)N2CC(C)(F)C2)nnc1N1CCc2ncc(Nc3ccnn3C)cc2C1` [Example 560, (3-fluoro-3-methylazetidin-1-yl)(5-methyl-6-(3-((1-methyl-1H-pyrazol-5-yl)amino)-7,8-dihydro-1,6-naphthyridin-6(5H)-yl)pyridazin-3-yl)methanone] are 75% and 64 nM.
Regarding `Cc1cc(C(=O)N2CC3(COC3)C2)nnc1N1CCc2ncc(Nc3ccnn3C)cc2C1` [Example 561, (5-methyl-6-(3-((1-methyl-1H-pyrazol-5-yl)amino)-7,8-dihydro-1,6-naphthyridin-6(5H)-yl)pyridazin-3-yl)(2-oxa-6-azaspiro[3.3]heptan-6-yl)methanone], the Emax at 30 µM came out at 82% and the EC50 is 169 nM.
Take `Cc1cc(C(=O)N2CC(C(F)F)C2)nnc1N1CCc2ncc(-c3ccnn3C)cc2C1` [Example 562, (3-(difluoromethyl)azetidin-1-yl)(5-methyl-6-(3-(1-methyl-1H-pyrazol-5-yl)-7,8-dihydro-1,6-naphthyridin-6(5H)-yl)pyridazin-3-yl)methanone]: the Emax at 30 µM turned out to be 74% and the EC50 came to 91 nM.
Take `Cc1cc(C(=O)N2CC(F)C2)nnc1N1CCc2ncc(-c3ccnn3C)cc2C1` [Example 563, (3-fluoroazetidin-1-yl)(5-methyl-6-(3-(1-methyl-1H-pyrazol-5-yl)-7,8-dihydro-1,6-naphthyridin-6(5H)-yl)pyridazin-3-yl)methanone]: the Emax at 30 µM was 69% and the EC50 stood at 74 nM.
In the case of `Cc1cc(C(=O)N2CC(C)(F)C2)nnc1N1CCc2ncc(-c3ccnn3C)cc2C1` [Example 564, (3-fluoro-3-methylazetidin-1-yl)(5-methyl-6-(3-(1-methyl-1H-pyrazol-5-yl)-7,8-dihydro-1,6-naphthyridin-6(5H)-yl)pyridazin-3-yl)methanone], the Emax at 30 µM is 72% and the EC50 came out at 86 nM.
For `Cc1cc(C(=O)N2CC3(COC3)C2)nnc1N1CCc2ncc(-c3ccnn3C)cc2C1` [Example 565, (5-methyl-6-(3-(1-methyl-1H-pyrazol-5-yl)-7,8-dihydro-1,6-naphthyridin-6(5H)-yl)pyridazin-3-yl)(2-oxa-6-azaspiro[3.3]heptan-6-yl)methanone], the Emax at 30 µM was 72% and the EC50 stood at 128 nM.
Consider `Cc1cc(C(=O)N2CC(F)(F)C2)nnc1N1CCc2ncc(Nc3ccnn3C)cc2C1` [Example 566, (3,3-difluoroazetidin-1-yl)(5-methyl-6-(3-((1-methyl-1H-pyrazol-5-yl)amino)-7,8-dihydro-1,6-naphthyridin-6(5H)-yl)pyridazin-3-yl)methanone], for which the Emax at 30 µM stood at 73% and the EC50 was determined as 41 nM.
As to `Cc1cc(C(=O)N2CC(F)(F)C2)nnc1N1CCc2ncc(-c3ccnn3C)cc2C1` [Example 567, (3,3-difluoroazetidin-1-yl)(5-methyl-6-(3-(1-methyl-1H-pyrazol-5-yl)-7,8-dihydro-1,6-naphthyridin-6(5H)-yl)pyridazin-3-yl)methanone], the Emax at 30 µM amounted to 75% and the EC50 came to 70 nM.
For `Cc1cc(C(=O)N2CC(F)C2)nnc1N1CCc2ncc(-n3cccn3)cc2C1` [Example 568, (6-(3-(1H-pyrazol-1-yl)-7,8-dihydro-1,6-naphthyridin-6(5H)-yl)-5-methylpyridazin-3-yl)(3-fluoroazetidin-1-yl)methanone], in that order: 75% and 161 nM.
For the compound `Cc1cc(C(=O)N2CC(C)(F)C2)nnc1N1CCc2ncc(-n3cccn3)cc2C1` [Example 569, (6-(3-(1H-pyrazol-1-yl)-7,8-dihydro-1,6-naphthyridin-6(5H)-yl)-5-methylpyridazin-3-yl)(3-fluoro-3-methylazetidin-1-yl)methanone], the Emax at 30 µM was 78% and the EC50 stood at 200 nM.
As for `Cc1cc(C(=O)N2CC3(C2)CC(F)(F)C3)nnc1N1CCc2ncc(-n3cccn3)cc2C1` [Example 570, (6-(3-(1H-pyrazol-1-yl)-7,8-dihydro-1,6-naphthyridin-6(5H)-yl)-5-methylpyridazin-3-yl)(6,6-difluoro-2-azaspiro[3.3]heptan-2-yl)methanone], the Emax at 30 µM was determined as 84% and the EC50 stood at 340 nM.
As to `Cc1cc(C(=O)N2CC3(COC3)C2)nnc1N1CCc2ncc(-n3cccn3)cc2C1` [Example 571, (6-(3-(1H-pyrazol-1-yl)-7,8-dihydro-1,6-naphthyridin-6(5H)-yl)-5-methylpyridazin-3-yl)(2-oxa-6-azaspiro[3.3]heptan-6-yl)methanone], the Emax at 30 µM came out at 85% and the EC50 came to 213 nM.
For `Cc1cc(C(=O)N2CC(F)C2)nnc1N1CCc2ncc(N3CCO[C@H](C)C3)cc2C1` [Example 572, (R)-(3-fluoroazetidin-1-yl)(5-methyl-6-(3-(2-methylmorpholino)-7,8-dihydro-1,6-naphthyridin-6(5H)-yl)pyridazin-3-yl)methanone], in that order: 87% and 51 nM.
In the case of `Cc1cc(C(=O)N2CC(C)(F)C2)nnc1N1CCc2ncc(N3CCO[C@H](C)C3)cc2C1` [Example 573, (R)-(3-fluoro-3-methylazetidin-1-yl)(5-methyl-6-(3-(2-methylmorpholino)-7,8-dihydro-1,6-naphthyridin-6(5H)-yl)pyridazin-3-yl)methanone], the Emax at 30 µM came out at 89% and the EC50 was found to be 100 nM.
As for `Cc1cc(C(=O)N2CC3(C2)CC(F)(F)C3)nnc1N1CCc2ncc(N3CCO[C@H](C)C3)cc2C1` [Example 574, (R)-(6,6-difluoro-2-azaspiro[3.3]heptan-2-yl)(5-methyl-6-(3-(2-methylmorpholino)-7,8-dihydro-1,6-naphthyridin-6(5H)-yl)pyridazin-3-yl)methanone], the Emax at 30 µM worked out at 81% and the EC50 is 193 nM.

One may read the Emax as the greatest response seen or fitted, relative to the assay's reference. What is called EC50 is the midpoint of the concentration-response curve.
